From PMC3354620 (Journal of the American Chemical Society, 2011)
Entries after “also recorded” stand apart in the source; their conditions may differ.

Experiments:
A/M2-V27A [1] = target: T1, A/M2-V27A (Influenza A virus, UniProt P0DOF5, V27A); assay type: cell-based, Influenza A virus (Udorn strain)
[2] = tested on: influenza A virus (A/Udorn/72) V27A mutant; assay type: cell-based
A/M2-V27A [3] = target: T1, A/M2-V27A; conditions: cited from earlier work

SMILES	inhibition against V27A mutant (in words) (A/M2-V27A [1])	inhibition of A/M2-V27A virus replication [2]	effect of V27A mutation on channel sensitivity to drug (A/M2-V27A [3])
NC12CC3CC(CC(C3)C1)C2 [Amantadine]	completely unable to inhibit	no inhibition; also recorded: no effect	entirely resistant
CC(N)C12CC3CC(CC(C3)C1)C2 (stereo not shown) [rimantadine]			entirely resistant
